Assay results reported in patent EP4667467A1, “PROTAC DEGRADERS OF MLLT1 AND/OR MLLT3” (Dark Blue Therapeutics Ltd, priority 2024, dated 2025).

Biological target: T1, MLLT1 (Homo sapiens, UniProt Q03111)
T1 construct: endogenous in cells; host or cells: MV4-11 (ATCC CRL-9591)
T1 sequence (Q03111 1-559): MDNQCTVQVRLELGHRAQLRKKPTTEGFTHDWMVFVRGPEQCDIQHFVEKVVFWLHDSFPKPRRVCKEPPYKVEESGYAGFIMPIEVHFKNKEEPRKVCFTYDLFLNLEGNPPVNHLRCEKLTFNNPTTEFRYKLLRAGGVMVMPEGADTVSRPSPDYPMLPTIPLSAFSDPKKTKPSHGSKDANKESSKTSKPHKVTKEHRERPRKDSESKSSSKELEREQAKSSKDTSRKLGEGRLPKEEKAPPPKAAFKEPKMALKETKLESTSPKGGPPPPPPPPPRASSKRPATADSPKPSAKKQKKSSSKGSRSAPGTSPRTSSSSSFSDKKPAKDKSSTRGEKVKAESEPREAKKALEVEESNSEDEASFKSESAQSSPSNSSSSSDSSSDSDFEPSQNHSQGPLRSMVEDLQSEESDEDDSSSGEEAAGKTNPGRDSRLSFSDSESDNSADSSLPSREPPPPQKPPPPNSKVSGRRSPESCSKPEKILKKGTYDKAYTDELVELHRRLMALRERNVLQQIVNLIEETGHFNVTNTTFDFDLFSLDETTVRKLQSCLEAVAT
Experiment: MLLT1 Degradation Assay (JESS automated chemiluminescent detection, MV4-11 cells)
Assay type: cell-based
Details: 24h, with respect to DMSO control; for MLLT1 % Degradation @ 0.01 µM: 0.01 µM (10 nM) test compound; for MLLT1 % Degradation @ 0.1 µM: 0.1 µM (100 nM) test compound; for MLLT 1 % Degradation @ 1 µM: 1 µM (1000 nM) test compound
In short: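 MV4-11 cells were treated for 24 h at 37 °C, 5% CO2 with compound at 1000, 100 and 10 nM (0.1% DMSO). MLLT1 was quantified by automated capillary chemiluminescent immunodetection (JESS). Band peak areas were expressed as % degradation relative to DMSO control.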

CN1CCC[C@@H]1c1cc2cnc(NC(=O)c3ccc(CCC#Cc4cccc5c4CN(C4CCC(=O)NC4=O)C5=O)cc3)cc2[nH]1 (stereo partly drawn) [Example 52, 4-(4-(2-(2,6-dioxopiperidin-3-yl)-1-oxoisoindolin-4-yl)but-3-yn-1-yl)-N-(2-((R)-1-methylpyrrolidin-2-yl)-1H-pyrrolo[3,2-c]pyridin-6-yl)benzamide]
MLLT1 % Degradation @ 0.01 µM: A (Category A: A ≥ 75% degradation)
MLLT1 % Degradation @ 0.1 µM: A (Category A: A ≥ 75% degradation)
MLLT 1 % Degradation @ 1 µM: B (Category B: 50% ≤ B < 75% degradation)

CN1CCC[C@@H]1c1cc2cnc(NC(=O)c3ccc(CCC#Cc4cccc5c4n(C)c(=O)n5C4CCC(=O)NC4=O)cc3)cc2[nH]1 (stereo partly drawn) [Example 53, 4-(4-(1-(2,6-dioxopiperidin-3-yl)-3-methyl-2-oxo-2,3-dihydro-1H-benzo[d]imidazol-4-yl)but-3-yn-1-yl)-N-(2-((R)-1-methylpyrrolidin-2-yl)-1H-pyrrolo[3,2-c]pyridin-6-yl)benzamide]
MLLT1 % Degradation @ 0.01 µM: A (Category A: A ≥ 75% degradation)
MLLT1 % Degradation @ 0.1 µM: A (Category A: A ≥ 75% degradation)
MLLT 1 % Degradation @ 1 µM: B (Category B: 50% ≤ B < 75% degradation)

CN1CCC[C@@H]1c1cc2cnc(NC(=O)c3ccc(CCC#Cc4cccc5c4CN(C4CCC(=O)NC4=O)C5=O)cc3F)cc2[nH]1 (stereo partly drawn) [Example 54, 4-(4-(2-(2,6-dioxopiperidin-3-yl)-1-oxoisoindolin-4-yl)but-3-yn-1-yl)-2-fluoro-N-(2-((R)-1-methylpyrrolidin-2-yl)-1H-pyrrolo [3,2-c]pyridin-6-yl) benzamide]
MLLT1 % Degradation @ 0.01 µM: A (Category A: A ≥ 75% degradation)
MLLT1 % Degradation @ 0.1 µM: A (Category A: A ≥ 75% degradation)
MLLT 1 % Degradation @ 1 µM: B (Category B: 50% ≤ B < 75% degradation)

CN1CCC[C@@H]1c1cc2cnc(NC(=O)c3ccc(CCCC#Cc4cccc5c4CN(C4CCC(=O)NC4=O)C5=O)cc3)cc2[nH]1 (stereo partly drawn) [Example 55, 4-(5-(2-(2,6-dioxopiperidin-3-yl)-1-oxoisoindolin-4-yl)pent-4-yn-1-yl)-N-(2-((R)-1-methylpyrrolidin-2-yl)-1H-pyrrolo[3,2-c]pyridin-6-yl)benzamide]
MLLT1 % Degradation @ 0.01 µM: A (Category A: A ≥ 75% degradation)
MLLT1 % Degradation @ 0.1 µM: A (Category A: A ≥ 75% degradation)
MLLT 1 % Degradation @ 1 µM: A (Category A: A ≥ 75% degradation)

CN1CCC[C@@H]1c1cc2cnc(NC(=O)c3ccc(OCCCC#Cc4cccc5c4CN(C4CCC(=O)NC4=O)C5=O)cc3)cc2[nH]1 (stereo partly drawn) [Example 56, 4-((5-(2-(2,6-dioxopiperidin-3-yl)-1-oxoisoindolin-4-yl)pent-4-yn-1-yl)oxy)-N-(2-((R)-1-methylpyrrolidin-2-yl)-1H-pyrrolo[3,2-c]pyridin-6-yl)benzamide]
MLLT1 % Degradation @ 0.01 µM: A (Category A: A ≥ 75% degradation)
MLLT1 % Degradation @ 0.1 µM: A (Category A: A ≥ 75% degradation)
MLLT 1 % Degradation @ 1 µM: A (Category A: A ≥ 75% degradation)

CN1CCC[C@@H]1c1cc2cnc(NC(=O)c3ccc(OCC#Cc4cccc5c4CN(C4CCC(=O)NC4=O)C5=O)cc3F)cc2[nH]1 (stereo partly drawn) [Example 57, 4-((3-(2-(2,6-dioxopiperidin-3-yl)-1-oxoisoindolin-4-yl)prop-2-yn-1-yl)oxy)-2-fluoro-N-(2-((R)-1-methylpyrrolidin-2-yl)-1H-pyrrolo[3,2-c]pyridin-6-yl)benzamide]
MLLT1 % Degradation @ 0.01 µM: A (Category A: A ≥ 75% degradation)
MLLT1 % Degradation @ 0.1 µM: A (Category A: A ≥ 75% degradation)
MLLT 1 % Degradation @ 1 µM: A (Category A: A ≥ 75% degradation)

CN1CCC[C@@H]1c1cc2cnc(NC(=O)c3cccc(OCC#Cc4cccc5c4CN(C4CCC(=O)NC4=O)C5=O)c3)cc2[nH]1 (stereo partly drawn) [Example 58, 3-((3-(2-(2,6-dioxopiperidin-3-yl)-1-oxoisoindolin-4-yl)prop-2-yn-1-yl)oxy)-N-(2-((R)-1-methylpyrrolidin-2-yl)-1H-pyrrolo[3,2-c]pyridin-6-yl)benzamide]
MLLT1 % Degradation @ 0.01 µM: B (Category B: 50% ≤ B < 75% degradation)
MLLT1 % Degradation @ 0.1 µM: A (Category A: A ≥ 75% degradation)
MLLT 1 % Degradation @ 1 µM: C (Category C: 25% ≤ C < 50% degradation)

CN1CCC[C@@H]1c1cc2cnc(NC(=O)c3ccc(-c4cnn(CCCCC#Cc5cccc6c5CN(C5CCC(=O)NC5=O)C6=O)c4)cc3)cc2[nH]1 (stereo partly drawn) [Example 59, 4-(1-(6-(2-(2,6-dioxopiperidin-3-yl)-1-oxoisoindolin-4-yl)hex-5-yn-1-yl)-1H-pyrazol-4-yl)-N-(2-((R)-1-methylpyrrolidin-2-yl)-1H-pyrrolo[3,2-c]pyridin-6-yl)benzamide]
MLLT1 % Degradation @ 0.01 µM: A (Category A: A ≥ 75% degradation)
MLLT1 % Degradation @ 0.1 µM: A (Category A: A ≥ 75% degradation)
MLLT 1 % Degradation @ 1 µM: B (Category B: 50% ≤ B < 75% degradation)

CN1CCC[C@@H]1c1cc2cnc(NC(=O)c3ccc(-c4cnn(CCCC5CCN(c6cccc(C(=O)N[C@H]7CCC(=O)NC7=O)n6)CC5)c4)cc3)cc2[nH]1 [Example 60, N-((S)-2,6-dioxopiperidin-3-yl)-6-(4-(3-(4-(4-((2-((R)-1-methylpyrrolidin-2-yl)-1H-pyrrolo[3,2-c]pyridin-6-yl)carbamoyl)phenyl)-1H-pyrazol-1-yl)propyl)piperidin-1-yl)picolinamide]
MLLT1 % Degradation @ 0.01 µM: A (Category A: A ≥ 75% degradation)
MLLT1 % Degradation @ 0.1 µM: A (Category A: A ≥ 75% degradation)
MLLT 1 % Degradation @ 1 µM: A (Category A: A ≥ 75% degradation)

CN1CCC[C@@H]1c1cc2cnc(NC(=O)c3ccc(-c4cnn(CCOC5CCN(c6cccc(C(=O)N[C@H]7CCC(=O)NC7=O)n6)CC5)c4)cc3)cc2[nH]1 [Example 61, N-((S)-2,6-dioxopiperidin-3-yl)-6-(4-(2-(4-(4-((2-((R)-1-methylpyrrolidin-2-yl)-1H-pyrrolo[3,2-c]pyridin-6-yl)carbamoyl)phenyl)-1H-pyrazol-1-yl)ethoxy)piperidin-1-yl)picolinamide]
MLLT1 % Degradation @ 0.01 µM: A (Category A: A ≥ 75% degradation)
MLLT1 % Degradation @ 0.1 µM: A (Category A: A ≥ 75% degradation)
MLLT 1 % Degradation @ 1 µM: B (Category B: 50% ≤ B < 75% degradation)

CN1CCC[C@@H]1c1cc2cnc(NC(=O)c3ccc(-c4cnn(CCCC#Cc5cccc(C(=O)N[C@H]6CCC(=O)NC6=O)n5)c4)cc3)cc2[nH]1 [Example 62, N-((S)-2,6-dioxopiperidin-3-yl)-6-(5-(4-(4-((2-((R)-1-methylpyrrolidin-2-yl)-1H-pyrrolo[3,2-c]pyridin-6-yl)carbamoyl)phenyl)-1H-pyrazol-1-yl)pent-1-yn-1-yl) picolinamide]
MLLT1 % Degradation @ 0.01 µM: B (Category B: 50% ≤ B < 75% degradation)
MLLT1 % Degradation @ 0.1 µM: A (Category A: A ≥ 75% degradation)
MLLT 1 % Degradation @ 1 µM: B (Category B: 50% ≤ B < 75% degradation)

CN1CCC[C@@H]1c1cc2cnc(NC(=O)c3ccc(CCCC#Cc4cccc(N5CCC(=O)NC5=O)n4)cc3)cc2[nH]1 [Example 63, (R)-4-(5-(6-(2,4-dioxotetrahydropyrimidin-1(2H)-yl)pyridin-2-yl)pent-4-yn-1-yl)-N-(2-(1-methylpyrrolidin-2-yl)-1H-pyrrolo[3,2-c]pyridin-6-yl)benzamide]
MLLT1 % Degradation @ 0.01 µM: D (Category D: D < 25% degradation)
MLLT1 % Degradation @ 0.1 µM: D (Category D: D < 25% degradation)
MLLT 1 % Degradation @ 1 µM: C (Category C: 25% ≤ C < 50% degradation)

CN1CCC[C@@H]1c1cc2cnc(NC(=O)c3ccc(N4CCC(N5CCN(c6cccc7c6C(=O)N(C6CCC(=O)NC6=O)C7=O)CC5)CC4)nc3)cc2[nH]1 (stereo partly drawn) [Example 64, 6-(4-(4-(2-(2,6-dioxopiperidin-3-yl)-1,3-dioxoisoindolin-4-yl)piperazin-1-yl)piperidin-1-yl)-N-(2-((R)-1-methylpyrrolidin-2-yl)-1H-pyrrolo[3,2-c]pyridin-6-yl)nicotinamide]
MLLT1 % Degradation @ 0.01 µM: B (Category B: 50% ≤ B < 75% degradation)
MLLT1 % Degradation @ 0.1 µM: B (Category B: 50% ≤ B < 75% degradation)
MLLT 1 % Degradation @ 1 µM: A (Category A: A ≥ 75% degradation)

CN1CCC[C@@H]1c1cc2cnc(NC(=O)c3cnc(N4CCC(C#Cc5cccc6c5CN(C5CCC(=O)NC5=O)C6=O)CC4)nc3)cc2[nH]1 (stereo partly drawn) [Example 65, 2-(4-((2-(2,6-dioxopiperidin-3-yl)-1-oxoisoindolin-4-yl)ethynyl)piperidin-1-yl)-N-(2-((R)-1-methylpyrrolidin-2-yl)-1H-pyrrolo[3,2-c]pyridin-6-yl)pyrimidine-5-carboxamide]
MLLT1 % Degradation @ 0.01 µM: B (Category B: 50% ≤ B < 75% degradation)
MLLT1 % Degradation @ 0.1 µM: B (Category B: 50% ≤ B < 75% degradation)
MLLT 1 % Degradation @ 1 µM: B (Category B: 50% ≤ B < 75% degradation)

CN1CCC[C@@H]1c1cc2cnc(NC(=O)c3ccc(OCC#Cc4cccc5c4n(C)c(=O)n5C4CCC(=O)NC4=O)cc3)cc2[nH]1 (stereo partly drawn) [Example 66, 4-((3-(1-(2,6-dioxopiperidin-3-yl)-3-methyl-2-oxo-2,3-dihydro-1H-benzo[d]imidazol-4-yl)prop-2-yn-1-yl)oxy)-N-(2-((R)-1-methylpyrrolidin-2-yl)-1H-pyrrolo[3,2-c]pyridin-6-yl)benzamide]
MLLT1 % Degradation @ 0.01 µM: A (Category A: A ≥ 75% degradation)
MLLT1 % Degradation @ 0.1 µM: A (Category A: A ≥ 75% degradation)
MLLT 1 % Degradation @ 1 µM: A (Category A: A ≥ 75% degradation)
